# Patent US20250311689A1, “SEEDLING GERMINATION AND GROWTH CONDITIONS” (PIONEER HI-BRED INTERNATIONAL, INC., priority 2022, published 2025)
# “And” between values parts separate entries of the source, which are not always exact repeats. Equal entries are not always repeated.
# Columns and labels:
# [1] = tested on: teff (Eragrostis tef) seedlings; assay: Ancymidol pre-treatment during seed germination and seedling growth, teff; type: in vivo
# [2] = tested on: pearl millet (Pennisetum glaucum) seedlings; assay: Ancymidol pre-treatment during seed germination and seedling growth, pearl millet; type: in vivo
# [3] = tested on: Japonica rice (Oryza sativa var Kitaake) seedlings; assay: Ancymidol pre-treatment during seed germination and seedling growth, rice; type: in vivo
# [4] = tested on: maize inbred seedlings with pre-integrated target site 45 / leaf segments; assay: Seedling pre-treatment with ancymidol, Agrobacterium-mediated site-specific integration (Table 22); type: in vivo; details: 90AE medium (900 + 2 mg/l ancymidol); 30 seedlings; PHP90842:PHP93925 9:1; no untreated comparison
# [5] = tested on: Pioneer inbred ED85E and GR013D seedlings / leaf segments; assay: Sugar (maltose) seedling pre-treatment, leaf transformation (Table 27); type: in vivo, maize
# [6] = tested on: Pioneer inbred GR0112 seedlings / leaf segments; assay: Fipexide seedling pre-treatment, leaf transformation (Table 26); type: in vivo, maize; details: for # culture response (2 wk) / # culture response (4 wk) / T-DNA score (0-5): 42 seedlings, PHP96277; for increase of total somatic embryo (SE) number relative to the control treatment: within the first four weeks of culture, per 42 starting seedlings
# [7] = tested on: Pioneer inbred ED85E seedlings / leaf segments; assay: Gibberellic acid inhibitor seedling pre-treatment, leaf transformation (Table 24); type: in vivo, maize
# [8] = tested on: Pioneer inbred ED85E seedlings / leaf segments; assay: Cytokinin seedling pre-treatment, leaf transformation (Table 25); type: in vivo, maize; details: for # T0 plants / # culture response (2 wk) / # culture response (4 wk) / T-DNA score (0-5) / TXN %: 21 seedlings, PHP97334
# [9] = tested on: Pioneer inbred GR0112 seedlings / leaf segments; assay: Norflurazon (abscisic acid biosynthesis inhibitor) seedling pre-treatment, leaf transformation (Table 28); type: in vivo, maize; details: for # culture response (2 wk): 2 weeks after infection
# [10] = 900 medium plus 2 mg/l ancymidol
# [11] = 20 mg/l maltose in place of sucrose, 90AE medium, second replicate (inbred GR013D), 30 seedlings, PHP104215
# [12] = 4.75 mg/l in 90AE medium (+ 2 mg/l ancymidol)
# [13] = 9.5 mg/l in 90AE medium (+ 2 mg/l ancymidol)
# [14] = 19 mg/l in 90AE medium (+ 2 mg/l ancymidol)
# [15] = 1 mg/l in 90AE medium (+ 2 mg/l ancymidol)
# [16] = 5 mg/l in 90AE medium (+ 2 mg/l ancymidol)
# [17] = 3 mg/l in 90AE medium (+ 2 mg/l ancymidol)
# [18] = 0.1 mg/l in 90AE medium (+ 2 mg/l ancymidol)
# [19] = 0.5 mg/l in 90AE medium (+ 2 mg/l ancymidol)
# [20] = 2 mg/l in 900 germination medium, 24 seedlings, PHP101093
# [21] = 4 mg/l in 900 germination medium, 24 seedlings, PHP101093
# [22] = 6 mg/l in 900 germination medium, 24 seedlings, PHP101093
# [23] = 250 mg/l in 90AO medium (900 + 1 mg/l ancymidol), 30 seedlings, PHP97334
# [24] = 500 mg/l in 90AO medium (900 + 1 mg/l ancymidol), 30 seedlings, PHP97334
compound,measurement,setting,value
"COc1ccc(C(O)(c2cncnc2)C2CC2)cc1 (stereo not drawn) [Ancymidol, ancymidol]",seedling height after 14 days,[1]; [10],1-2 cm
same,number of transgenic T0 plantlets compared to the other two treatments (0 and 2 mg/l),[1]; 900 plus 1 mg/l ancymidol,highest
same,seedling height after 14 days,[2]; [10],1-2 cm
same,number of transgenic T0 plantlets compared to the other two treatments (0 and 2 mg/l),[2]; 900 plus 1 mg/l ancymidol,highest
same,seedling height after 14 days,[3]; [10],1-2 cm
same,number of transgenic T0 plantlets compared to the other two treatments (0 and 2 mg/l),[3]; 900 plus 1 mg/l ancymidol,highest
same,Number of: Escapes,[4],3
same,Number of: Events regenerated,[4],7
same,Number of: Leaf segments/pieces responded,[4],127
same,Number of: Putative events,[4],44
same,Number of: RMCE events,[4],1
same,Number of: SSI events,[4],3
"OC[C@H]1O[C@H](O[C@H]2[C@H](O)[C@@H](O)C(O)O[C@@H]2CO)[C@H](O)[C@@H](O)[C@@H]1O (mixture of isomers) [Maltose, maltose]",improvement of T0 Txn % relative to seedlings grown on 20 mg/l sucrose,"[5]; 20 mg/l maltose as the carbon source, inbred GR013D",1.3 fold
same,# T0 plants,[5]; [11],25
same,# culture response (2 wk),[5]; [11],650
same,# culture response (4 wk),[5]; [11],562
same,T-DNA score (0-5),[5]; [11],4
same,TXN %,[5]; [11],83%
"O=C(COc1ccc(Cl)cc1)N1CCN(Cc2ccc3c(c2)OCO3)CC1 [Fipexide, fipexide]",# culture response (2 wk),[6]; [12],768
same,# culture response (4 wk),[6]; [12],829
same,T-DNA score (0-5),[6]; [12],4
same,increase of total somatic embryo (SE) number relative to the control treatment,[6]; 4.75 mg/l,1.4 fold
same,# culture response (2 wk),[6]; [13],681
same,# culture response (4 wk),[6]; [13],780
same,T-DNA score (0-5),[6]; [13],3.5
same,increase of total somatic embryo (SE) number relative to the control treatment,[6]; 9.5 mg/l,1.3 fold
same,# culture response (2 wk),[6]; [14],636
same,# culture response (4 wk),[6]; [14],733
same,T-DNA score (0-5),[6]; [14],3.5
same,increase of total somatic embryo (SE) number relative to the control treatment,[6]; 19 mg/l,1.2 fold
"CN(C)NC(=O)CCC(=O)O [Daminozide, daminozide]",# T0 plants,[7]; in vivo,71 and 41 and 53
same,# culture response (2 wk),[7]; in vivo,87 and 103 and 70
same,# culture response (4 wk),[7]; in vivo,99 and 103 and 95
same,T0 transformation frequencies relative to the control treatment,[7]; in vivo,increase
same,T-DNA score (0-5),[7]; in vivo,4
same,TXN %,[7]; in vivo,355% and 205% and 265%
same,trend in the T0 transformation data,[7]; in vivo,no clear trend
"c1ccc(CNc2ncnc3nc[nH]c23)cc1 [BAP, 6-benylamino purine]",increase of T0 Txn % relative to the control seedling germination medium with no cytokinin,[8]; 1 mg/l,1.4 fold
same,# T0 plants,[8]; [15],97
same,# culture response (2 wk),[8]; [15],135
same,# culture response (4 wk),[8]; [15],151
same,T-DNA score (0-5),[8]; [15],4
same,TXN %,[8]; [15],462%
same,increase of T0 Txn % relative to the control seedling germination medium with no cytokinin,[8]; 5 mg/l,1.8 fold
same,# T0 plants,[8]; [16],128
same,# culture response (2 wk),[8]; [16],144
same,# culture response (4 wk),[8]; [16],172
same,T-DNA score (0-5),[8]; [16],4
same,TXN %,[8]; [16],610%
trans-zeatin,increase of T0 Txn % relative to the control seedling germination medium with no cytokinin,[8]; 1 mg/l,1.2 fold
same,# T0 plants,[8]; [15],102
same,# culture response (2 wk),[8]; [15],196
same,# culture response (4 wk),[8]; [15],177
same,T-DNA score (0-5),[8]; [15],4
same,TXN %,[8]; [15],486%
same,increase of T0 Txn % relative to the control seedling germination medium with no cytokinin,[8]; 3 mg/l,1.5 fold
same,# T0 plants,[8]; [17],130
same,# culture response (2 wk),[8]; [17],192
same,# culture response (4 wk),[8]; [17],222
same,T-DNA score (0-5),[8]; [17],4
same,TXN %,[8]; [17],619%
"O=C(Nc1ccccc1)Nc1cnns1 [TDZ, thidiazuron]",# T0 plants,[8]; [18],99
same,# culture response (2 wk),[8]; [18],169
same,# culture response (4 wk),[8]; [18],121
same,T-DNA score (0-5),[8]; [18],4
same,TXN %,[8]; [18],471%
same,# T0 plants,[8]; [19],97
same,# culture response (2 wk),[8]; [19],182
same,# culture response (4 wk),[8]; [19],122
same,T-DNA score (0-5),[8]; [19],4
same,TXN %,[8]; [19],462%
same,change over the control treatment,[8]; 0.1 and 0.5 mg/l,no increase
same,somatic embryo response and transformation frequency (Txn %),"[8]; higher concentration ranges, such as 1, 2, 5, or 10 mg/l, stated in present tense, no data",increase
"CC(C)(C)[C@@H](O)[C@@H](Cc1ccc(Cl)cc1)n1cncn1 (racemic) [PBZ, paclobutrazol]",# T0 plants,[7]; [20],60
same,# culture response (2 wk),[7]; [20],271
same,# culture response (4 wk),[7]; [20],224
same,T-DNA score (0-5),[7]; [20],3.5
same,TXN %,[7]; [20],250%
same,# T0 plants,[7]; [21],40
same,# culture response (2 wk),[7]; [21],212
same,# culture response (4 wk),[7]; [21],156
same,T-DNA score (0-5),[7]; [21],3.5
same,TXN %,[7]; [21],167%
same,# T0 plants,[7]; [22],29
same,# culture response (2 wk),[7]; [22],151
same,# culture response (4 wk),[7]; [22],99
same,T-DNA score (0-5),[7]; [22],3.5
same,TXN %,[7]; [22],121%
same,trend in the T0 transformation data,"[7]; concentrations tested in Table 24 (paclobutrazol 2-6 mg/l, daminozide 50-150 mg/l)",no clear trend
same,T0 transformation frequencies relative to the control treatment,"[7]; higher concentration ranges 10, 20, 50 mg/l, stated in present tense, no data",increase
CNc1cnn(-c2cccc(C(F)(F)F)c2)c(=O)c1Cl [norflurazon],improvement of T0 Txn % relative to the control treatment,"[9]; 0.1 mg/l norflurazon, inbred GR0112, within the first two weeks of culture after Agrobacterium infection",1.1 fold
same,T-DNA score (0-5),"[9]; norflurazon 0.1 mg/l in 90AE germination medium, inbred GR0112",4
same,# culture response (2 wk),"[9]; norflurazon 0.1 mg/l, 22 seedlings",350
same,T-DNA score (0-5),"[9]; norflurazon 1 mg/l in 90AE germination medium, inbred GR0112",1.5
same,# culture response (2 wk),"[9]; norflurazon 1 mg/l, 7 seedlings",19
same,T-DNA score (0-5),"[9]; norflurazon 3 mg/l in 90AE germination medium, inbred GR0112",2
same,# culture response (2 wk),"[9]; norflurazon 3 mg/l, 7 seedlings",45
"C[N+](C)(C)CCCl [Chlormequat chloride, chlormequat chloride]",# T0 plants,[7]; [23],145
same,# culture response (2 wk),[7]; [23],265
same,# culture response (4 wk),[7]; [23],318
same,T-DNA score (0-5),[7]; [23],4.5
same,TXN %,[7]; [23],483%
same,improvement of T0 transformation frequency (Txn %) relative to the control,[7]; 250 mg/l pretreatment of ED85E seedlings,1.4 fold
same,# T0 plants,[7]; [24],108
same,# culture response (2 wk),[7]; [24],302
same,# culture response (4 wk),[7]; [24],339
same,T-DNA score (0-5),[7]; [24],4.5
same,TXN %,[7]; [24],360%
